According to patent US4312883A, “Furocoumarin for the photochemotherapy of psoriasis and related skin diseases” (Consiglio Nazionale delle Ricerche, priority 1979, dated 1982):
“Also recorded” adds a separate entry of the source. Where two headings read alike, the source gives them in different places.

Tests used:
[1] = tested on: RNA synthesis in Ehrlich ascites tumor cells; assay: Inhibition of RNA synthesis on irradiation at 365 nm; assay type: cell-based; settings: relative (ang = 100)
From the text: (§1) Photobiological activity: A significant test for assessing photobiological activity of alkylangelicins is the study of their capacity to inhibit DNA and RNA synthesis in Ehrlich ascites tumor cells. In Table III the capacity of inhibition is expressed as ID50, that is the irradiation does, in terms of quanta at 365 nm, necessary to inhibit in these cells the 50% of the DNA and RNA synthesis in the presence of a constant amount of alkylangelicin. […] Moreover, in general it can be observed that in this simple biological system a close correlation exists between photobiological activity and the capacity to induce photochemical lesions in DNA, that is photoreactivity.

[2] = tested on: DNA; assay: Capacity to form inter-strand cross-linkages in DNA; assay type: biochemical; settings: (psr = 100)
Method: All these compounds were not suitable to photoinduce in DNA inter-strand cross-linkages. […] These tests were carried out according to the method of F. Bordin et al., Photochem. Photobiol., 29,1063 (1979).

[3] = tested on: DNA synthesis in Ehrlich ascites tumor cells; assay: Inhibition of DNA synthesis (and DNA and RNA synthesis) on irradiation at 365 nm; assay type: cell-based; settings: relative (ang = 100)
From the text: as §1

[4] = tested on: psoriasis; assay: Topical photochemotherapy of psoriasis in patients; assay type: in vivo, human; settings: for No. of patients with Excellent result / No. of patients with Fair result / No. of patients with Good result / No. of patients with Poor result: topical 0.1% w/v + UV-A; for No. of patients with Excellent result: Excellent = 90% clearance; for No. of patients with Fair result: Fair = 50-70%; for No. of patients with Good result: Good = 70-90%; for No. of patients with Poor result: Poor 40%
From the text: Clinical data: The effectiveness of certain representative alkylangelicins according to the present invention, specifically 5-methylangelicin, 4,5'-dimethylangelicin, 4'-hydroxymethyl-4,5'-dimethylangelicin, 4'-hydroxymethyl-4,5'-dimethylangelicin and 4,5-dimethylangelicin, has been tested by measuring their capacity to resolve psoriasis in various patients. For a direct comparison the efficacy of the parent unsubstituted angelicin and that of three very effective linear furocoumarins, that is 8-methoxypsoralen (8-MOP), 5-methoxypsoralen (5-MOP), and 4,5',8-trimethylpsoralen (TMP) were also tested.
In each treatment four areas of the affected skin were used;
(a) In the first area an alcohol lotion, containing 10% glycerine, of the tested compound (0.1% w/v) was applied until a concentration of […] was reached then left to evaporate by the heat of the body. After half an hour the area was irradiated with high intensity UV-A emitting low pressure mercury fluorescent lamps with a wavelength of 320-400 nm. The irradiation doses were selected in the range of 4.5-13 J/cm^2 for each application as a function of the sensitivity of the skin of the patients; when the skin sensitivity was higher, the light doses were lower and vice versa.
(b) A second area was treated with an alcohol solution of the drug as in (a) but it was covered and maintained in the dark.
(c) A third area, where the drug was not applied, was irradiated as in (a) but in general with higher UV-A doses.
(d) A fourth area was not treated at all, neither with the drug, not with UV-A.
The treatment with the alkylangenlicins referred to above was repeated 5 time a week for two or more weeks; the total number of treatments was between 8 and 20 per subject. In some cases, as for instance with 5-methylangelicin, a good clearing of psoriasis was observed after 8 treatments.
In order to avoid induction of photosensitization processes such as redness and erythema in the reference tests made with the linear furocoumarins 8-MOP, 5-MOP, TMP, lower light doses were used than in the case of alkylangelicins, the treatments were repeated at a frequency of no more than three times a week.

[5] = Acute toxicity in mice; settings: mouse, in vivo, po
[6] = tested on: epidermal DNA synthesis; assay: Inhibition of epidermal DNA synthesis in the mouse in vivo after topical application and UV-A irradiation; settings: light or radiation study, 0.01% methanol solutions, UV-A 9 J/cm^2, read-out: Percent inhibition ± standard error of epidermal DNA synthesis
Method: DNA samples were dissolved in water and their specific radioactivity determined.
Each drug substance was studied using at least six mice.

[7] = tested on: DNA; assay: Dark complex formation (intercalation) with DNA in the ground state, binding parameters; parameters: K (association constants) of the complexes with DNA: unit not given here; settings: for K (association constants) of the complexes with DNA / 1/n (frequency of binding sites): in vitro, ground state; for K (association constants) of the complexes with DNA: McGhee and Von Hippel method; for 1/n (frequency of binding sites): molecules bound per nucleotide; for 1/n (frequency of binding sites), relative / K (association constants), relative: relative (ang = 100)
From the text: Dark complex formation: It is known from F. Dall'Acqua, et al. Chem.-Biol. Interactions 21,103 (1978) that the intercalated complex formed by furocoumarins with DNA strongly affects the successive photoaddition increasing the rate of photobinding. […] These parameters have been determined according to the method of McChee and Von Hippel, J.Mol.Biol, 86, 469 (1974).
(a) Determined according to Mc Ghee and Von Hippel, J. Mol. Biol.,

[8] = tested on: DNA; assay: Photobinding to DNA, rate constants of the photoreactions; assay type: biochemical; settings: for Rate constants of the photoreactions with DNA: in vitro, UV-A irradiated; for Rate constants of the photoreactions with DNA, relative: relative (ang = 100)
From the text: (b) Determined according to F. Dall'Acqua, S. Marciani, F. Zambon and G.
Rodighiero, Photochem. Photobiol., 29,489(1979).
Photobinding capacity to DNA: The introduction of one or two methyl groups in the molecule of angelicin leads to a strong increase of the photobinding to DNA; see Table II. […] Photobiol., 29, 489 (1979).

[9] = tested on: Salmonella typhimurium TA 100; assay: Ames test; assay type: cell-based; settings: Salmonella typhimurium TA 100 his G46 (uvrB^- rfa) pKM101; versus 4,5'-dimethylangelicin
[10] = tested on: skin; assay: Relative skin phototoxicity; settings: (psr = 100)
[11] = tested on: DNA; settings: cited from earlier work; for DNA intercalation property / Interstrand cross-linking induction in DNA / Monoadduct forming property: Table I; for Photobinding capacity to DNA: known furocoumarins
[12] = known furocoumarins, Table I; cited from earlier work
[13] = tested on: epidermal DNA synthesis; assay: Inhibition of the synthesis of epidermal DNA of the mouse in vivo after oral administration and UV-A irradiation; settings: oral 0.25 g/Kg, UV-A 9 J/cm^2 after two hours
From the text: Considering that the topical skin tests carried out on mice to evaluate the effectiveness of these substances has yielded data which correlate well with the clinical data, such a test conveniently modified has been adopted to evaluate the effectiveness of the alkylangelicins after oral administration followed by UV-A irradiation.
In this connection experiments have been conducted using mice 20±2 g in weight, that were starved for three hours before oral administration of the alkylangelicins. Groups of 5 mice were fed a suspension of 0.5% methylcellulose in water containing the alkylangelicins of the invention at a dosage of 0.25 g/Kg. The animals were kept in the dark for two hours, that is for the time necessary for absorption, systemic distribution and localization of the drug at the level of the skin. The animals were then irradiated with UV-A light, 9 J/cm^2. Later the animals were sacrificed and the inhibition of the epidermal DNA synthesis was tested; the results obtained are reported in Table VI. The skin on the back, protected from light by a dark paper, was assumed as a control. As a reference 8-MOP, used under the same experimental conditions, was also tested. The significant activity of the alkylangelicins according to the present invention, higher than that of 8-MOP, in inhibiting the epidermal DNA synthesis in mice upon oral administration allows one to consider these compounds as also being effective for oral administration to humans for photochemotherapy of psoriasis and of other skin diseases that are characterized by cellular hyperproliferation.

[14] = cited from earlier work
[15] = tested on: DNA; settings: (psr = 100); footnote (c), reference compounds; cited from earlier work
[16] = Table I; cited from earlier work
[17] = tested on: DNA synthesis; settings: Table I; cited from earlier work
[18] = tested on: melamin pigmentation; settings: Table I; cited from earlier work
[19] = tested on: E. coli wild type strain; settings: E. coli wild type strains; cited from earlier work
[20] = tested on: E. coli WP2 trp^- uvrA^-; settings: cited from earlier work
[21] = tested on: normal human and guinea pig skin; settings: in vivo; cited from earlier work

Compound | inhibition of RNA synthesis, relative [1] | capacity to form interstrand cross-linkages [2] | inhibition of DNA synthesis, relative [3] | No. of patients with Excellent result [4] [patients] | No. of patients with Fair result [4] [patients] | No. of patients with Good result [4] [patients] | No. of patients with Poor result [4] [patients] | LD50 [5] [mg/kg] | inhibition in vivo at 0.01 % [6] [%] | K (association constants) of the complexes with DNA [7] | 1/n (frequency of binding sites) [7] | 1/n (frequency of binding sites), relative [7] | K (association constants), relative [7] | Rate constants of the photoreactions with DNA [8] [K × 10^-2 × min^-1] | Rate constants of the photoreactions with DNA, relative [8] | Relative skin phototoxicity [10] | DNA intercalation property [11] | Interstrand cross-linking induction in DNA [11] | Monoadduct forming property [11] | Photobinding capacity to DNA [11] | also measured
Cc1cc2occc2c2oc(=O)ccc12 [5-methylangelicin] | 281 | 0 | 275 | 2 | 0 | 5 | 0 | 2000 | 47.5 ± 1.19 | 1560 | 0.071 | 112 | 278 | 3.41 | 298 | 0 | – | – | – | – | efficacy in psoriasis patients (in words) ([4]; topical + UV-A): very active, probably more active than the same amount of 8-MOP; number of treatments to good clearing of psoriasis ([4]; topical + UV-A, 5 times a week, in some cases): 8 treatments; mutagenic activity (Ames test) [9]: of the same order of magnitude as that of 4,5'-dimethylangelicin
COc1c2occc2cc2ccc(=O)oc12 [8-MOP, 8-methoxypsoralen, reference compound] | 93 | – | 249 | 3 | 2 | 3 | 2 | 800 | 61 ± 1.6 | 740 | 0.128 | 203 | 132 | 2.3 | 209 | 71 | strong | strong, well known | known, strong | known, strong | Photosensitizing activity [12]: known, strong; Percent inhibition ± standard error of epidermal DNA synthesis [13]: 39.1 ± 3.7%; Carcinogenicity (oral) ([14]; oral): weak; Carcinogenicity (topical) ([14]; topical): strong; capacity to form interstrand cross-linkages [15]: 63; Mutagenicity [16]: known, strong; DNA synthesis inhibiting property [17]: known, strong; Stimulation of melamin pigmentation [18]: strong, well known
O=c1ccc2ccc3occc3c2o1 [angelicin, reference compound] | – | 0 | – | 0 | 0 | 0 | 8 | – | 17.5 ± 2.5 | 560 | 0.063 | 100 | 100 | 1.1 | 100 | 0 | evident | absent | weak | low capacity of photobinding to DNA; also recorded: low photobinding capacity towards DNA | Photobinding capacity to DNA ([11]; listed as Angelicin): weak; mutagenic activity / mutation frequency, wild type [19]: not detectable; mutagenic activity, strains deficient in known repair functions [20]: Only very low mutagenic activity; Photosensitizing activity [12]: absent; Percent inhibition ± standard error of epidermal DNA synthesis [13]: 28 ± 2%; erythema or hyperpigmentation on the skin [21]: does not provoke either erythema or hyperpigmentation on the skin; Mutagenicity [16]: weak; DNA synthesis inhibiting property [17]: weak; Stimulation of melamin pigmentation [18]: absent
O=c1ccc2cc3ccoc3cc2o1 [psoralen, reference compound] | 166 | – | 275 | – | – | – | – | – | 47.8 ± 7.9 | 400 | 0.108 | 171 | 71.4 | 3.8 | 345 | 100 | – | – | – | – | capacity to form interstrand cross-linkages [15]: 100
